Measured values taken from patent US20250120967A1, “TYROSINE KINASES INHIBITORS AND USES THEREOF” (GREAT NOVEL THERAPEUTICS BIOTECH & MEDICALS CORPORATION, priority 2023, published 2025).

Assays:
CT26 tumor = assay: Experimental tumor model and therapies, CT26 tumor-bearing mice;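 also: male Balb/c mice bearing CT26 grafts in the back, treated once tumors reached roughly 250–300 mm^3, tumor volume measured twice weekly, response graded by fold growth after treatment end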
Description: LLC1 was grown at 37° C. under humidified air supplemented with CO2 in DMEM (#10-013-CM, Corning®) containing 10% heat inactivated fetal calf serum, and 1× concentration of MycoZap Antibiotics. CT26 was grown at 37° C. under humidified air supplemented with CO2 in RPMI1640 (cat. #10-040-CM, Corning®) containing 10% heat inactivated fetal calf serum, and 1× concentration of MycoZap Antibiotics. After the cancer cell culture was completed, it was implanted (1×10^6 cells/mouse) into the back of the mouse for growth.
Six- to eight-week-old male Balb/c mice (National Laboratory Animal Center, Taiwan) were used for all animal experiments. […] Tumors were allowed to grow for 10-12 days (tumor size about 250-300 mm^3) before randomization and treatment. The tumor volume of the mice was measured once every three or four days (twice/week). Animals were euthanized when tumors reached more than 3000 mm^3 in diameter. […] Relapse/recurrence was defined as when tumor growth reappeared and tumor size reached at least 5 fold in mice with CR or PR response after secondary tumor assessment. In this study, we defined Complete Response (CR, <0.5 time tumor growth in the tumor bearing mice at tumor assessment after the end of treatment); Partial Response (PR, tumor size ≥0.5 time tumor growth, but <1 time tumor growth in the tumor bearing mice at tumor assessment after the end of treatment); Stable Disease (SD, ≥1 time tumor growth, but <5 times tumor growth in the tumor bearing mice at tumor assessment after the end of treatment); and Progressive Disease (PD, ≥5 times tumor growth in the tumor bearing mice at tumor assessment after the end of treatment) for the evaluation of treatment efficacy.

[1] = tested on: NCI-60 human cancer cell lines; assay: NCI-60 screen (SRB), panel average; assay type: cell-based; settings: average over the NCI-60 cell lines of the table
Description: The human tumor cell lines of the cancer screening panel are grown in RPMI 1640 medium containing 5% fetal bovine serum and 2 mM L-glutamine. For a typical screening experiment, cells are inoculated into 96 well microtiter plates in 100 μL at plating densities ranging from 5,000 to 40,000 cells/well depending on the doubling time of individual cell lines. After cell inoculation, the microtiter plates are incubated at 37° C., 5% CO2, 95% air and 100% relative humidity for 24 h prior to addition of experimental drugs. After 24 h, two plates of each cell line are fixed in situ with TCA, to represent a measurement of the cell population for each cell line at the time of drug addition (Tz). Experimental drugs are solubilized in dimethyl sulfoxide at 400-fold the desired final maximum test concentration and stored frozen prior to use. At the time of drug addition, an aliquot of frozen concentrate is thawed and diluted to twice the desired final maximum test concentration with complete medium containing 50 µg/ml gentamicin. An additional four, 10-fold or M log serial dilutions are made to provide a total of five drug concentrations plus control. Aliquots of 100 μl of these different drug dilutions are added to the appropriate microtiter wells already containing 100 μl of medium, resulting in the required final drug concentrations. Following drug addition, the plates are incubated for an additional 48 h at 37° C., 5% CO2, 95% air, and 100% relative humidity. For adherent cells, the assay is terminated by the addition of cold TCA. Cells are fixed in situ by the gentle addition of 50 μl of cold 50% (w/v) TCA (final concentration, 10% TCA) and incubated for 60 minutes at 4° C. The supernatant is discarded, and the plates are washed five times with tap water and air dried. Sulforhodamine B (SRB) solution (100 l) at 0.4% (w/v) in 1% acetic acid is added to each well, and plates are incubated for 10 minutes at room temperature. […] Bound stain is subsequently solubilized with 10 mM trizma base, and the absorbance is read on an automated plate reader at a wavelength of 515 nm. […]

EPHB2 = target: T1, EPHB2 (Homo sapiens, UniProt P29323); assay: Tyrosine kinase inhibition assay; assay type: biochemical; settings: single concentration 1.0 μM, read-out: percent inhibition
T1 sequence (P29323 19-1055): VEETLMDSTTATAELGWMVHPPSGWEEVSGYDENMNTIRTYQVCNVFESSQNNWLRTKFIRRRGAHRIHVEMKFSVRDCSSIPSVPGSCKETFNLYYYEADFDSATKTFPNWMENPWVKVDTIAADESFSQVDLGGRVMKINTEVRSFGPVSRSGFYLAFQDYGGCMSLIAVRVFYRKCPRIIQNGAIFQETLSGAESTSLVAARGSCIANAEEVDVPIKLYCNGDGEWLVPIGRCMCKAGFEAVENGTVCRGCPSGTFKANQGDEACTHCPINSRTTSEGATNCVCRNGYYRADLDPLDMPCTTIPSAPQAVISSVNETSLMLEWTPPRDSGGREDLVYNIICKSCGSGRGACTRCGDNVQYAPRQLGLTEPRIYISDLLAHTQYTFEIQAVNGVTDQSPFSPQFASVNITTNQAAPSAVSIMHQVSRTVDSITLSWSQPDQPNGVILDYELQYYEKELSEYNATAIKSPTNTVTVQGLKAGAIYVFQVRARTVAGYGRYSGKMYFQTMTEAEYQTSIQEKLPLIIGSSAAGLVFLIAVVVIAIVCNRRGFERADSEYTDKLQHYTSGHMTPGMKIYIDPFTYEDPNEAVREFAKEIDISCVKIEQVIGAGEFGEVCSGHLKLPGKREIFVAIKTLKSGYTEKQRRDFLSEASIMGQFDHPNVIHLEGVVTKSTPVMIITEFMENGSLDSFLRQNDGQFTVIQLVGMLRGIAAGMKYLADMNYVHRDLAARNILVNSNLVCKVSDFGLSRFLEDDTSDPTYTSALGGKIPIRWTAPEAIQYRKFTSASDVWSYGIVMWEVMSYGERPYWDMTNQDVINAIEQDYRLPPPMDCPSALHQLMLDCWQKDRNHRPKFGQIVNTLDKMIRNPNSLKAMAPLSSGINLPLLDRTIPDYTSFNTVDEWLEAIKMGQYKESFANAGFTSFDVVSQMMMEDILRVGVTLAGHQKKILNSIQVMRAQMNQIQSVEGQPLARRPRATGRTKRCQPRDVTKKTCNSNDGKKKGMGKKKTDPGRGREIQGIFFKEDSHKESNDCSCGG
Description: (§1) Tyrosine kinase inhibition assays were performed at ThermoFisher Life Technologies (Madison, WI, USA) using standard protocols (SelectScreen Biochemical Profiling Service, Thermo Fisher Scientific). ATP concentrations used were at the apparent Km. Test compounds were screened in 1% dimethylsulffoxide (DMSO) (final concentration) in the well. For 10-point titrations, 3-fold serial dilutions were conducted from the starting concentration of […]. All Peptide/Kinase Mixtures were diluted to a 2× working concentration in the appropriate Kinase Buffer. All ATP Solutions were diluted to a 4× working concentration in Kinase Buffer (50 mM HEPES pH 7.5, 0.01% BRIJ-35, 10 mM MgCl2, 1 mM EGTA). The apparent ATP Km was previously determined using a Z′-LYTE assay. The Development Reagent was diluted in Development Buffer.
(§2) The inhibition activities of compounds were determined in biochemical assays using single concentration (1.0 μM) measurements. The results were provided as percent inhibition values. […] 99 different tyrosine kinases were used.

PTK2 (FAK) = PTK2 (FAK) (Homo sapiens, UniProt Q05397); assay: Tyrosine kinase inhibition assay; assay type: biochemical; settings: single concentration 1.0 μM, read-out: percent inhibition
Chain of PTK2 (FAK) (Q05397 whole entry): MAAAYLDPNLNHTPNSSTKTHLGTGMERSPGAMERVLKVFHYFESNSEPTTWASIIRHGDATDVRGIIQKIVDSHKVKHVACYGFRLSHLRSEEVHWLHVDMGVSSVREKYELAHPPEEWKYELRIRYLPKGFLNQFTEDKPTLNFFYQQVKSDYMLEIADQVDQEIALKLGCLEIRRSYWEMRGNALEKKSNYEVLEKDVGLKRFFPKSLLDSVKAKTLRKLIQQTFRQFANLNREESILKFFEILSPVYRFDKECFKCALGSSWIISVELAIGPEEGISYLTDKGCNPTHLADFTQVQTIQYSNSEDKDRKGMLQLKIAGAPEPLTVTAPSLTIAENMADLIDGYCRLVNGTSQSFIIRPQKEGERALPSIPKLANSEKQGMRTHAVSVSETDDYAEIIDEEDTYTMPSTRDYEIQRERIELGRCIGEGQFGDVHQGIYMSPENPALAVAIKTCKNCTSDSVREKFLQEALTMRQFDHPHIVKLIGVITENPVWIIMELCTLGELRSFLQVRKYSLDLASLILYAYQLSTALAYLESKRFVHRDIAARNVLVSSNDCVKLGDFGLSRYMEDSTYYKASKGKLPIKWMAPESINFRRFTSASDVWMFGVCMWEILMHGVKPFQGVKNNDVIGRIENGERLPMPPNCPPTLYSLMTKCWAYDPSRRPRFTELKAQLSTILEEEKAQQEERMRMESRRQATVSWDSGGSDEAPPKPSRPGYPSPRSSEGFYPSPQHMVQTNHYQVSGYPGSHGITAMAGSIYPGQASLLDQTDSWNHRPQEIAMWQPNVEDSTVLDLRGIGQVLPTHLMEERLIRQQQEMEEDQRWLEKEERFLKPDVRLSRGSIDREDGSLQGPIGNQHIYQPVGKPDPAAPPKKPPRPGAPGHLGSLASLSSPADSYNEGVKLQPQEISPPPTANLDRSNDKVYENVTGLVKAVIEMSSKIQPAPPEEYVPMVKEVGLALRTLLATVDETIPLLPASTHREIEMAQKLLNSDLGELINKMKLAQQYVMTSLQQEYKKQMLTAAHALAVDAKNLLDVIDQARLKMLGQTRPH
Description: as §1, §2

NCI-H460 = assay: NCI-60 screen (SRB); assay type: cell-based; settings: Homo sapiens; NCI-H460, Non-Small Cell Lung Cancer
Description: (§3) The human tumor cell lines of the cancer screening panel are grown in RPMI 1640 medium containing 5% fetal bovine serum and 2 mM L-glutamine. For a typical screening experiment, cells are inoculated into 96 well microtiter plates in 100 μL at plating densities ranging from 5,000 to 40,000 cells/well depending on the doubling time of individual cell lines. After cell inoculation, the microtiter plates are incubated at 37° C., 5% CO2, 95% air and 100% relative humidity for 24 h prior to addition of experimental drugs. After 24 h, two plates of each cell line are fixed in situ with TCA, to represent a measurement of the cell population for each cell line at the time of drug addition (Tz). Experimental drugs are solubilized in dimethyl sulfoxide at 400-fold the desired final maximum test concentration and stored frozen prior to use. At the time of drug addition, an aliquot of frozen concentrate is thawed and diluted to twice the desired final maximum test concentration with complete medium containing 50 µg/ml gentamicin. An additional four, 10-fold or M log serial dilutions are made to provide a total of five drug concentrations plus control. Aliquots of 100 μl of these different drug dilutions are added to the appropriate microtiter wells already containing 100 μl of medium, resulting in the required final drug concentrations. Following drug addition, the plates are incubated for an additional 48 h at 37° C., 5% CO2, 95% air, and 100% relative humidity. For adherent cells, the assay is terminated by the addition of cold TCA. Cells are fixed in situ by the gentle addition of 50 μl of cold 50% (w/v) TCA (final concentration, 10% TCA) and incubated for 60 minutes at 4° C. The supernatant is discarded, and the plates are washed five times with tap water and air dried. Sulforhodamine B (SRB) solution (100 l) at 0.4% (w/v) in 1% acetic acid is added to each well, and plates are incubated for 10 minutes at room temperature. After staining, unbound dye is removed by washing five times with 1% acetic acid and the plates are air dried. Bound stain is subsequently solubilized with 10 mM trizma base, and the absorbance is read on an automated plate reader at a wavelength of 515 nm. For suspension cells, the methodology is the same except that the assay is terminated by fixing settled cells at the bottom of the wells by gently adding 50 μl of 80% TCA (final concentration, 16% TCA).

A549/ATCC = assay: NCI-60 screen (SRB); assay type: cell-based; settings: Homo sapiens, Non-Small Cell Lung Cancer
Description: as §3

SF-539 = assay: NCI-60 screen (SRB); assay type: cell-based; settings: Homo sapiens; SF-539, CNS Cancer
Description: as §3

SK-OV-3 = assay: NCI-60 screen (SRB); assay type: cell-based; settings: Homo sapiens; SK-OV-3, Ovarian Cancer
Description: as §3

[2] = FIG. 2E, oral once daily, Cabozantinib 30 mg/kg, Cbo-02 30 mg/kg, Chidamide-K30 50 mg/kg
[3] = FIG. 3E, oral 12 days, Cabozantinib 30 mg/kg, Cbo-20 30 mg/kg, GNTbm-38-K30 40 mg/kg
[4] = FIG. 6E, Cbo-23 30 mg/kg, Cabozantinib 30 mg/kg, GNTbm-38-K30 20 mg/kg
[5] = FIG. 6F, Cbo-23 30 mg/kg, Cabozantinib 30 mg/kg, GNTbm-38-K30 20 mg/kg
[6] = FIG. 5E, Cbo-23 30 mg/kg, Regorafenib 30 mg/kg, GNTbm-38-K30 20 mg/kg in combination, 5 mg/kg alone

| Compound | ORR (CT26 tumor; [2]) [%] | CR (number of mice) (CT26 tumor; [4]) | ORR (CT26 tumor; [4]) [%] | PD (number of mice) (CT26 tumor; [4]) | PR (number of mice) (CT26 tumor; [4]) | Survival Rate (CT26 tumor; [5]) [%] | GI50 [1] [nM] | inhibition at 1 µM (EPHB2) [%] | inhibition at 1 µM (PTK2 (FAK)) [%] | GI50 (NCI-H460) [nM] | GI50 (A549/ATCC) [nM] | GI50 (SF-539) [nM] | GI50 (SK-OV-3) [nM] | other results |
| --- | --- | --- | --- | --- | --- | --- | --- | --- | --- | --- | --- | --- | --- | --- |
| COc1cc2nccc(Oc3ccc(NC(=O)C4(C(=O)Nc5ccc(F)cc5)CC4)cc3)c2cc1OC [Cabozantinib, reference compound] | 0 | 3 | 44 | 2 | 1 | 33 | – | – | – | – | – | – | – | CR (number of mice) (CT26 tumor; [3]): 0; ORR (CT26 tumor; [3]): 0%; PD (number of mice) (CT26 tumor; [3]): 5; PR (number of mice) (CT26 tumor; [3]): 0; Survival Rate (CT26 tumor; FIG. 3F, Cabozantinib 30 mg/kg, Cbo-20 30 mg/kg, GNTbm-38-K30 40 mg/kg): 0%; ORR (CT26 tumor; FIG. 4D, Cabozantinib 30 mg/kg, Cbo-22 30 mg/kg, GNTbm-38-K30 40 mg/kg): 0%; Survival Rate (CT26 tumor; FIG. 4E, Cabozantinib 30 mg/kg, Cbo-22 30 mg/kg, GNTbm-38-K30 40 mg/kg): 0% |
| COc1cc2nccc(Oc3ccc(NC(=O)C4(NC(=O)c5ccc(F)cc5)CC4)cc3F)c2cc1OC [Cbo-02, N-(1-((4-((6,7-diMethoxyquinolin-4-yl)oxy)-3-fluorophenyl)carbamoyl)cyclopropyl)-4-fluorobenzamide] | 10 | – | – | – | – | – | 2560 | 13 | 20 | 2750 | 3270 | 1690 | 2270 | – |
| COc1cc2nccc(Oc3ccc(NC(=O)C4(NC(=O)c5ccc(F)cc5)CC4)cc3F)c2cc1Oc1ccc(N)cc1F [Cbo-10] | – | – | – | – | – | – | 1570 | 64 | 33 | 1300 | 483 | > 100000 | 302 | – |
| COc1cc2nccc(Oc3ccc(NC(=O)C4(NC(=O)c5ccc(F)cc5)CC4)cc3F)c2cc1Oc1c(F)cc(N)cc1F [Cbo-14] | – | – | – | – | – | – | – | 77 | 29 | – | – | – | – | – |
| COc1cc2nccc(Oc3ccc(NC(=O)C4(C(=O)Nc5ccc(F)cc5)CC4)cc3F)c2cc1Oc1ccc(N)cc1F [Cbo-23] | – | 3 | 30 | 7 | 0 | 20 | 730 | 100 | 66 | 457 | 325 | 179 | 464 | CR (number of mice) (CT26 tumor; [6]): 2; ORR (CT26 tumor; [6]): 22%; PD (number of mice) (CT26 tumor; [6]): 7; PR (number of mice) (CT26 tumor; [6]): 0; Survival Rate (CT26 tumor; FIG. 5F, Cbo-23 30 mg/kg, Regorafenib 30 mg/kg, GNTbm-38-K30 20 mg/kg in combination, 5 mg/kg alone): 11%; recurrence rate (CT26 tumor; FIG. 5G, day 60, Cbo-23 30 mg/kg, Regorafenib 30 mg/kg, GNTbm-38-K30 20 mg/kg in combination, 5 mg/kg alone): 50% |
